This is an account of results in US6420131B1, “Use of fluorescein aryl ethers in high throughput cytochrome P450 inhibition assays” (Gentest Corporation, priority 1999, dated 2002).

The target in one series is T1, Rat CYP2C12 (Rattus norvegicus, UniProt P11510).
T1 sequence (P11510 1-490): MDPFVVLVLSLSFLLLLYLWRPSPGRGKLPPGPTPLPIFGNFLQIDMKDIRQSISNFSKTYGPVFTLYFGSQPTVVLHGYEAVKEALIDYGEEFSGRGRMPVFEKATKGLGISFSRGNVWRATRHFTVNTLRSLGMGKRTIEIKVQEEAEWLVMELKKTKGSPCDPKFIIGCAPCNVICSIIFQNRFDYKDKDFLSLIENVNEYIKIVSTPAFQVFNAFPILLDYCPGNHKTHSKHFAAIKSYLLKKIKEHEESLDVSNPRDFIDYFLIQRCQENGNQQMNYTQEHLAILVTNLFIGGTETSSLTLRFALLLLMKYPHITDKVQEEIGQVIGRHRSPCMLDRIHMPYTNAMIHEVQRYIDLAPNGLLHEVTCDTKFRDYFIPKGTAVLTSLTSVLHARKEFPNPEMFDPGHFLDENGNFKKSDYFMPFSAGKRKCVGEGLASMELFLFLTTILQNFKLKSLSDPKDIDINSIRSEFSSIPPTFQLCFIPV
Nature of the series: Turnover of fluorometric substrates by rat CYP2C12. The settings on record: substrate uM: Ia 2, AMMC 20, CEC 40, MFC 50, BFC 50, BQ 40, BzRes 50; 30 min; enzyme 50 nM.

The next series addresses human CYP3A4 (Homo sapiens, UniProt P08684). Nature of the series: Enzyme kinetics of substrate turnover by cDNA-expressed CYP3A4. It counts as biochemical. On the set-up: purchased GENTEST Corporation P202; host or cells: baculovirus/insect cells (microsomes, SUPERSOMES). The settings on record: for Vmax: CYP3A4. The protocol:
The evaluation of compounds of Formula I were performed by measuring the kinetics of turnover using cDNA-expressed cytochromes P450 CYP3A4 and CYP2C8. Vmax and Km values are important for the optimization of the assay conditions and for setting the parameters for inhibition experiments.
Example Compound Ia. […] Final incubation volume was 0.2 ml. […] The activity was quantitated by comparing to a standard curve of fluorescein. Apparent Km and Vmax values were calculated by non-linear regression using SigmaPlot software.

The target in the next series is Rat CYP2E1 (Rattus norvegicus, UniProt P05182). Nature of the series: Turnover of fluorometric substrates by rat CYP2E1. The settings on record: substrate uM: Ia 2, AMMC 20, CEC 40, MFC 50, BFC 50, BQ 40, BzRes 50; 30 min; enzyme 87 nM, lymphoblastoid microsomes.
Series [1] addresses T2, panel of Human P450 enzymes (Homo sapiens, UniProt P04798).
T2 construct: purchased GENTEST Corporation; host or cells: baculovirus/insect cells (microsomes, SUPERSOMES)
T2 sequence (P04798 1-512): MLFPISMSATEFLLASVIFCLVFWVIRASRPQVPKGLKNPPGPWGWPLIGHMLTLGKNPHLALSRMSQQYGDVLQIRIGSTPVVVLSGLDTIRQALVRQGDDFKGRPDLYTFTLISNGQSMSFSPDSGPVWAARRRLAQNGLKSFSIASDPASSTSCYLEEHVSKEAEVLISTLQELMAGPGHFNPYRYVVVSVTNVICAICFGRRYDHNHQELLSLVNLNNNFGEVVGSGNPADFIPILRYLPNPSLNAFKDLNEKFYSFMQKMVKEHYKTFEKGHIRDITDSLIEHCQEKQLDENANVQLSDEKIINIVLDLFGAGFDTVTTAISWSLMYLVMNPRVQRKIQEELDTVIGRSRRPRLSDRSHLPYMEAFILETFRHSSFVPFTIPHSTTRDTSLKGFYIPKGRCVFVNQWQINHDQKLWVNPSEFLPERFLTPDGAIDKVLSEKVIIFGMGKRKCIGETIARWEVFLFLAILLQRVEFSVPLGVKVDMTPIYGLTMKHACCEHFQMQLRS
Nature of the series: Substrate specificity, dealkylation of Compounds Ia and Ib by a panel of human P450 enzymes. The settings on record: CYP1A1. It counts as biochemical. As to the method:
(§1) The specificity of several cytochrome P450 enzymes for the dealkylation of Compound Ia (FIG. 1) and Compound Ib (FIG. 2) was examined.
(§2) Example Compounds Ia and Ib. […] Final incubation volume was 0.2 ml.

The subject of series [2] is panel of Human P450 enzymes. Described as above. The settings on record: CYP2C9*1, CYP2C19, members of the CYP3A family. It counts as biochemical. The protocol:
as §1, §2

The target of series [3] is T3, panel of Human P450 enzymes (Homo sapiens, UniProt P10632).
T3 construct: purchased GENTEST Corporation; host or cells: baculovirus/insect cells (microsomes, SUPERSOMES)
T3 sequence (P10632 1-490): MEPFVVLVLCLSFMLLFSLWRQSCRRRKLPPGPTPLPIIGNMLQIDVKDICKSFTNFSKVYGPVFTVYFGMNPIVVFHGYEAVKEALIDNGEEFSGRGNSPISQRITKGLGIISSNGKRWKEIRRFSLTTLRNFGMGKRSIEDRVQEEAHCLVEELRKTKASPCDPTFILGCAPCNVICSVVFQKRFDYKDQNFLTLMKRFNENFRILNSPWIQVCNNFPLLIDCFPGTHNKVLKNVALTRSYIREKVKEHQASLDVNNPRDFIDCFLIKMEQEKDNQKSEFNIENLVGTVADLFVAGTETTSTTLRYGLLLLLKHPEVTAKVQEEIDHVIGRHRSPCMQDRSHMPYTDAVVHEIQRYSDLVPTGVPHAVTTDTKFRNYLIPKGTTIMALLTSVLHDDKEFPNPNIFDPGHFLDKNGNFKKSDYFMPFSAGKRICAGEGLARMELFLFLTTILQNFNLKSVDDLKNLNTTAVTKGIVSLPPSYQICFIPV
The description is as above. It counts as biochemical. The settings on record: CYP2C8. The protocol: as §1, §2

Sequence of human CYP3A4 (P08684 whole entry): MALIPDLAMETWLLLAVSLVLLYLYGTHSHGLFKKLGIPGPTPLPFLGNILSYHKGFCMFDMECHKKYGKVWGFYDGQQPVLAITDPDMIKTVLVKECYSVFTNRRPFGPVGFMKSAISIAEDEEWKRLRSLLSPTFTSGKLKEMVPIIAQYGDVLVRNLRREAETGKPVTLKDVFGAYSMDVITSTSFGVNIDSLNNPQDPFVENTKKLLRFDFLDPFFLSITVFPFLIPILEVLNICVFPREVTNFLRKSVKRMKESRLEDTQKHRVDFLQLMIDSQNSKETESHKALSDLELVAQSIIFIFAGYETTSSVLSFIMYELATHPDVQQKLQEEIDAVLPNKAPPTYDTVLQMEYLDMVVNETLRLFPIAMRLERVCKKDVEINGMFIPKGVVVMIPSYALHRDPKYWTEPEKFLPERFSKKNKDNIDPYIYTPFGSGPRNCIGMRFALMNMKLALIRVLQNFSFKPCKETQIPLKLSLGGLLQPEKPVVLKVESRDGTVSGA
Sequence of Rat CYP2E1 (P05182 whole entry): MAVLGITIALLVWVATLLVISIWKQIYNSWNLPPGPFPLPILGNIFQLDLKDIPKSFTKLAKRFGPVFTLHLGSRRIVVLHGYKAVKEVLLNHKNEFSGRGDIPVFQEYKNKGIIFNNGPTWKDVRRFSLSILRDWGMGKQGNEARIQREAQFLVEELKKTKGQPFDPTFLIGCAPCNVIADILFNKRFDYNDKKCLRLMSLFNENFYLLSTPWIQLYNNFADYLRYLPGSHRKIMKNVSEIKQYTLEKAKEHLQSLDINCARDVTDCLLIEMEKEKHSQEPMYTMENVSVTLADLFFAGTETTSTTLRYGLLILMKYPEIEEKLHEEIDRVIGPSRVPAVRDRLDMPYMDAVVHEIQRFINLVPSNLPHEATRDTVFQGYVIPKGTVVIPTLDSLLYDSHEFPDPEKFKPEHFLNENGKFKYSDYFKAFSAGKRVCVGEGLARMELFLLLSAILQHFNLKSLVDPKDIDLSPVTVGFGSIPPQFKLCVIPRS

As for `c1ccc(COc2ccc3cccnc3c2)cc1` [BQ, 7-Benzyloxyquinoline], the “Turnover Numbers, CYP2C12” value at Rat CYP2C12 is reported as 1.5 pmol product/min/pmol enzyme.

By Km is commonly meant the concentration of substrate that gives half-maximal velocity. Regarding `O=c1ccc2nc3ccc(OCc4ccccc4)cc3oc-2c1` [BzRes, 7-benzyloxyresorufin], at human CYP3A4, the Vmax was 2.3 ± 0.2. Moreover, at human CYP3A4 (CYP3A4, apparent Km), the Km was found to be 30 ± 7 µM.

Regarding `CCOc1ccc2cc(C#N)c(=O)oc2c1` [CEC, 7-Ethoxy-3-cyanocoumarin], the “Turnover Numbers, CYP2E1” value on Rat CYP2E1 is recorded as 0.10 pmol product/min/pmol enzyme.

With `O=C(OCc1ccccc1)c1ccccc1-c1c2ccc(=O)cc-2oc2cc(OCc3ccccc3)ccc12` [Compound Ia, O-Benzylfluorescein Benzyl Ester], the results for the dealkylation activity result in series [1], in series [2] and in series [3] were “highest activity”, “catalyzed the dealkylation” and “substantial enzyme activity”, respectively. Further, the Vmax on human CYP3A4 worked out at 22 ± 0.98.

For the molecule `COc1ccc2c(C(F)(F)F)cc(=O)oc2c1` [MFC, 7-Methoxy-4-trifluoromethylcoumarin], the “Turnover Numbers, CYP2C12” value at Rat CYP2C12 is reported as 0.24 pmol product/min/pmol enzyme. In addition, the “Turnover Numbers, CYP2E1” value on Rat CYP2E1 is 2.11 pmol product/min/pmol enzyme.
